# Source: patent US10780069B2, “Use of GC-1 in transplant related population” (University of Pittsburgh—Of the Commonwealth System of …, priority 2017, dated 2020)
# “Also recorded” adds a separate entry of the source.
# Key:
# [1] = system: β-catenin-TCF4 reporter activity in Hep3B cells (wild-type CTNNB1); assay: TopFlash reporter assay in Hep3B cells; assay type: cell-based, human; details: 7 μM GC-1 (methods: 5-7 μM, 24 hours), vs DMSO
# From the text: (§1) Three liver tumor cell lines Hep3B, HepG2 and Snu-398 cells were obtained from ATCC (Manassas, Va.). Cells were transfected simultaneously with Renilla reniformis luciferase (pRL-TK; Promega, Madison, Wis.) as a transfection control and TopFlash firefly luciferase plasmids (Upstate Biotechnology, Lake Placid, N.Y.), which contains three copies of the Tcf/Lef sites upstream of a thymidine kinase (TK) promoter and the firefly luciferase gene using Lipofectamine 2000 (Life Technologies). Twenty-four hours after transfection, cells were treated with either DMSO (Fisher Scientific) or 5-7 μM GC-1 (Medchem Express, Monmouth Junction, N.J.) for 24 hours. Lysates were harvested using the Dual-Luciferase Reporter Assay System (Promega, Madison, Wis.). Firefly luciferase signals were normalized to Renilla luciferase and ratio between groups compared by student's t-test to determine significance. P<0.05 was considered significant.
# [2] = system: β-catenin-TCF4 reporter activity in Snu-398 cells (point-mutant β-catenin); assay: TopFlash reporter assay in Snu-398 cells; assay type: cell-based, human; details: 7 μM GC-1 (methods: 5-7 μM, 24 hours), vs DMSO
# From the text: as §1
# [3] = system: hMet-S45Y-β-catenin HCC model; assay: GC-1 diet in hMet-S45Y-β-catenin HCC model; assay type: in vivo, mice; details: for increase in gene expression of deiodinase (RT-PCR, liver): p<0.001
# Experimental: SBTT plasmids and HTVI have been described previously (Tao et al., Hepatology 2016, 64:1587-605). Briefly, […] pT3-EF5α-hMet-V5 and pT3-EF5α-S45Y-β-catenin-Myc combination along with the transposase in a ratio of 25:1 were diluted in 2 ml of normal saline (0.9% NaCl), filtered through 0.22 μm filter (Millipore), and injected into the lateral tail vein of 23 FVB mice that were around 6-week-old, in 5-7 seconds. These mice are referred henceforth as hMet-mutant-β-catenin mice. Four weeks after injection, hMet-mutant-β-catenin mice were randomized into two groups. One group was kept on basal diet (n=12) and another group was switched to GC-1-supplemented diet (5 mg/kg of diet, Medchem Express) (n=11). Animals on control diet were sacrificed at either 21 days (n=8) or 10 days (n=4) after initiation of diet. Similarly, animals on GC-1-diet were sacrificed at either 21 days (n=7) or 10 days (n=4) after initiation of the diet. The animals were given access to food and water ad libitum with a 12-hour light/dark daily cycle. One intraperitoneal injection of BrdU was performed on day 9 during 10 days of GC-1 or basal diet treatment and livers were harvested 24 hours later. Guidelines for the Care and Use of Laboratory Animals were followed.
# Four micron formalin-fixed sections were deparaffinized in graded xylene and alcohol and rinsed in PBS. To block endogenous peroxidase activity, the sections were incubated in 3% hydrogen peroxide (Sigma). For antigen retrieval, slides were microwaved in citrate buffer followed by blocking with Superblock (ScyTek Laboratories, Logan, Utah) for 10 minutes. Sections were incubated overnight at 4° C. or 1 hour room temperature in the following antibodies: cyclin-D1 (Thermo-Scientific, Fremont, Calif.), Glutamine synthetase, Ki-67, Myc-tag and CD45 (Santa Cruz Biotechnology, Dallas, Tex.). Sections were then incubated with species-specific secondary horseradish peroxidase-conjugated antibody for 30 minutes at room temperature. Sections stained with antibodies were incubated with streptavidin-biotin and signal was detected with DAB. Cell death was evaluated in liver sections by terminal deoxynucleotidyl transferase dUTP nick end labeling (TUNEL) using manufacturer's instructions available with the kit (EMD-Millipore). BrdU was stained with mouse antibody (Becton Dickinson, Franklin Lakes, N.J.) as previously described (Alvarado et al., Gene Expr 2016, 17:19-34). Briefly, tissue sections were deparaffinized, exposed to 0.3% hydrogen peroxide in deionized water for 10 minutes to block endogenous peroxidase, treated with 2N HCl, incubated with trypsin 0.1% for 20 minutes and then with normal goat serum for 20 minutes at room temperature. Sections were then incubated overnight in cold room with anti-BrdU monoclonal antibody, followed by biotinylated goat anti-mouse IgG. DAB kit was then applied, and sections were counterstained with hematoxylin.
# For quantification of Ki-67 immunohistochemistry (IHC), pictures were taken at 200× magnification from either tumor or non-tumor areas in the same slide. Each picture was separated into DAB staining channel and hematoxylin staining channel by Color Deconvolution using Imagej Fiji. To quantify the number of Ki-67 positive nuclei on each picture, the DAB staining on the DAB channel was highlighted with the threshold of 48 and then quantified with Analyze Particles. All particles of areas smaller than 100 pixels were excluded. To quantify the total number of nuclei on each picture the hematoxylin staining on the hematoxylin channel was highlighted with the threshold of 205 and then quantified with Analyze Particles with similar exclusion of small areas. The percentage of Ki-67-positive nuclei on each picture was calculated by dividing the number of particles counted from DAB channel by the number of particles counted from the hematoxylin channel. […]
structure (smiles),measurement,setting,value
"Cc1cc(OCC(=O)O)cc(C)c1Cc1ccc(O)c(C(C)C)c1 [GC-1, Sobetirome]",TopFlash luciferase reporter activity,[1],no significant effect; also recorded: insignificant differences
same,TopFlash luciferase reporter activity,[2],no significant effect; also recorded: insignificant differences
same,"increase in gene expression of deiodinase (RT-PCR, liver)",[3]; 10-days of GC-1-diet vs basal diet,around 10 fold
same,"increase in gene expression of deiodinase (RT-PCR, liver)",[3]; 21-days of GC-1-diet vs basal diet,around 40 fold
same,cyclin-D1 and GS IHC of tumors,[3]; 10 days GC-1 diet,continued to be positive
same,tumor foci by H&E and Myc-tag staining,[3]; 10 days GC-1 diet,Smaller and fewer tumor foci
same,gross liver appearance,[3]; 10 days GC-1 diet vs basal diet,indistinguishable
same,liver weight to body weight ratio (LW/BW),"[3]; 10 days GC-1 diet vs basal diet, p=0.0022",significant decrease
same,BrdU and Ki-67 IHC within tumor foci,[3]; 10 days GC-1 vs basal diet,notable decrease
same,"GS levels, WB",[3]; 10 days GC-1 vs basal diet,modest decreases
same,Ki-67-positive cell numbers in non-tumor areas,[3]; 10 days GC-1 vs basal diet,No differences
same,TUNEL-positive cells,[3]; 10 days GC-1 vs basal diet,Comparable numbers
same,"cyclin-D1 levels, WB",[3]; 10 days GC-1 vs basal diet,marginal decreases
same,number of CD45-positive cells (inflammation),[3]; 10 days GC-1 vs basal diet,No differences
same,"total and active β-catenin levels, WB",[3]; 10 days GC-1 vs basal diet,modest decrease in the levels of total but not active β-catenin
same,percentage of Ki-67-positive cells within tumor nodules,"[3]; 10 days GC-1 vs basal diet, p<0.01",significant decrease
same,"p-AKT levels, WB",[3]; 10 days GC-1 vs control,did not have any effect
same,"p-ERK1 and p-ERK2, WB",[3]; 10 days GC-1 vs control,dramatically decreased
same,"p-Met (Tyr 1234/1235), WB, two independent antibodies",[3]; 10 days GC-1 vs control,profound decrease
same,"p-STAT3, WB",[3]; 10 days GC-1 vs control,profound decrease
same,"total AKT levels, WB",[3]; 10 days GC-1 vs control,no change
same,"total ERK levels, WB",[3]; 10 days GC-1 vs control,unaffected
same,"total Met levels, WB",[3]; 10 days GC-1 vs control,modestly decreased
same,"total STAT3 levels, WB",[3]; 10 days GC-1 vs control,overall reduced
same,Myc-tag levels by Western blot,[3]; 21 days GC-1 diet,modest decrease
same,cyclin-D1 IHC of tumor nodules,[3]; 21 days GC-1 diet,strongly positive
same,gross liver appearance,[3]; 21 days GC-1 diet,relatively smooth surface and smaller nodules
same,tumor nodules by H&E and Myc-tag IHC,[3]; 21 days GC-1 diet,notably smaller tumor nodules
same,liver weight to body weight ratio (LW/BW),"[3]; 21 days GC-1 diet vs basal diet, p=0.0506",almost significant decrease
same,"GS levels, WB",[3]; 21 days GC-1 vs basal diet,modest decrease
same,Ki-67-positive cells in non-tumor areas,[3]; 21 days GC-1 vs basal diet,insignificant
same,"cyclin-D1 levels, WB",[3]; 21 days GC-1 vs basal diet,no change
same,"p-AKT levels, WB",[3]; 21 days GC-1 vs basal diet,comparable levels
same,"p-Met (Tyr 1234/1235), WB",[3]; 21 days GC-1 vs basal diet,dramatic decrease
same,"p-STAT3 levels, WB",[3]; 21 days GC-1 vs basal diet,striking decrease
same,percentage of Ki-67 positive tumor cells within nodules,[3]; 21 days GC-1 vs basal diet,insignificant differences
same,"total AKT levels, WB",[3]; 21 days GC-1 vs basal diet,marginally increased
same,"total Met levels, WB",[3]; 21 days GC-1 vs basal diet,only marginally and variably decreased
same,"total STAT3 levels, WB",[3]; 21 days GC-1 vs basal diet,relatively unaltered
same,"total and active β-catenin levels, WB",[3]; 21 days GC-1 vs basal diet,remained unaltered
same,"total and p-ERK1 and total and p-ERK2, WB",[3]; 21 days GC-1 vs basal diet,notably decreased
same,TUNEL-positive cells (cell death),"[3]; 21 days, basal diet vs GC-1",More TUNEL-positive cells were evident in the basal diet group
same,Glutamine synthetase (GS) IHC of tumors,"[3]; 21 days, both groups",uniformly and comparably positive
